Entries after “also recorded” stand apart in the source; their conditions may differ.
Columns and labels:
[1] = test system: Aβ deposits; test: Long term in vivo effects on amyloid plaques in transgenic mice, cranial window, multiphoton spectroscopy; details: tail vein injection, 10 mg/kg
From the text: This long lasting binding to the plaques is advantageous for a long term therapeutic effect of the inventive compounds.

[2] = test system: Human Aβ38, Aβ40 and Aβ42; test: 30 days treatment, human Aβ determinations in CSF and brain homogenate SDS fraction (Mesoscale immunosorbent assay); type: in vivo, mice
Method: (§1) Starting at 8 months of age, female hAPPSL mice were treated with vehicle only or p-FTAA in 3 dosages for 30 days. The Test Item (T.I.) p-FTAA was administered in 3 dosages in Vehicle. 48 hAPP Tg mice plus 4 reserves allocated to 4 different treatment groups were treated with either vehicle only (control) or with p-FTAA in dosages of 0.1 mg/kg/day, 1 mg/kg/day, or 10 mg/kg/day. As an additional control, 12 nTg littermates of the hAPPSL mice (plus 1 reserve) were treated with vehicle only. Vehicle and T.I.s were administered twice daily intra peritoneal (i.p.) for 30 days.
Human Aβ38, Aβ40 and Aβ42 were determined in homogenates of the left brain hemispheres and in CSF samples of all Tg animals by an immunosorbent assay from Mesoscale Discovery
48 hAPP Tg mice plus 4 reserves allocated to 4 different treatment groups were treated with either vehicle only (control) or p-FTAA. As an additional control, 12 nTg littermates of the hAPPSL mice (plus 1 reserve) were treated with vehicle only. Tg hAPPSL mice with a C57BL/6xDBA background and corresponding nTg littermates at an age of 8 months (±2 weeks) were randomly assigned to the treatment groups.
Left hemi-brain samples (without cerebellum) of Tg animals were homogenized and separated. SDS fraction was prepared, after thawing, hemispheres were homogenized with the Homogenizer “Ultra Turrax T8” at highest speed in TBS (20 mM Tris, 137 mM NaCl, pH=7.6; containing protease inhibitor cocktail; 100 mg brain wet weight per ml TBS). One aliquot (1 ml) was centrifuged (74,200×g for 1 h at 4° C.). The pellets were suspended in 1 ml SDS (2% SDS in Aqua bidest), centrifuged as above and the supernatants were kept at −20° C. (SDS fraction).
In the brain homogenate SDS fraction and in CSF of each Tg mouse, human Aβ38, Aβ40 and Aβ42 levels were measured with a Aβ-kit from Mesoscale Discovery. Aβ levels were evaluated in comparison to a peptide standard as pg/mg brain (wet weight) or pg/ml CSF.
Descriptive statistical analysis was performed on all evaluated parameters. Data were represented as mean±standard deviation (SD). Grubb's test was used to detect outliers. Normality distribution of the values was tested with Kolmogorov Smirnov normality distribution test. Group differences between all Tg groups were calculated by a parametric ANOVA followed by a Bonferroni post test.

[3] = test system: Aβ38, Aβ40 or Aβ42; test: 14 days treatment, DEA extraction of soluble amyloid beta from brain homogenates; type: in vivo; details: data not shown
From the text: We also noted, data not shown, that p-FTAA treatment for 14 days, in 4 months old female […] transgenic mice, led to decreased Aβ38, Aβ40 or Aβ42 levels in the DEA Extraction of [soluble] Amyloid beta from brain homogenates.

[4] = test system: hAPPSL transgenic mice; test: 30 days treatment, Morris Water Maze (MWM) test; type: in vivo; details: 10 mg/kg, ip 30 days, treatment days 24 to 27
Method: as §1
The MWM was performed during 4 days at the end of treatment period (treatment days 24 to 27). […]
The escape latency (the time needed to find the hidden platform and therefore to escape from the water), the swimming path (the length to reach the target), the swimming speed and in the probe trial crossings over the former platform position and the abidance in the target quadrant were evaluated. […]
Descriptive statistical analysis was performed on all evaluated parameters. […] Group differences were calculated by a parametric ANOVA followed by a Bonferroni post test or by a non-parametric Kruskal Wallis ANOVA followed by a Dunn's post test if Gaussian distribution was missing. Learning curves were evaluated by a Two-way ANOVA followed by a Bonferroni post test. […]

**Q.** With O=C(O)Cc1cc(-c2ccc(C(=O)O)s2)sc1-c1ccc(-c2sc(-c3ccc(C(=O)O)s3)cc2CC(=O)O)s1 [Compound F] as the compound, how does the “binding to Aβ deposits in living mouse brain one week after injection” value ([1]; one week after injection) read?
**A.** Its value is “binding of the inventive compounds to AP deposits could still be observed; also recorded: bound to Aβ deposits in living mouse brain one week after injection”.

**Q.** What about the “crossing of the blood brain barrier after intravenous injection” value ([1]; transgenic mice with AD-like pathology) of the same compound?
**A.** Its value is “readily cross the blood brain barrier”.

**Q.** What about the “Aβ38, Aβ40 and Aβ42 levels in CSF compared to vehicle” value ([2]; 0.1 mg/kg/day ip for 30 days) of the same compound?
**A.** The value was “lower mean Aβ levels but statistical significance was observed for Aβ38 only”.

**Q.** What about the “Aβ38, Aβ40 and Aβ42 levels in CSF compared to vehicle” value ([2]; 1 mg/kg/day ip for 30 days) of the same compound?
**A.** The value was “did not differ significantly from the vehicle control”.

**Q.** What about the “Aβ38, Aβ40 and Aβ42 levels in CSF compared to vehicle” value ([2]; 10 mg/kg/day ip for 30 days, 8 months old female hAPPSL mice, listed as p-FTAA) of the same compound?
**A.** The value was “significantly decreased; also recorded: highly significant”.

**Q.** And the “Aβ38, Aβ40 and Aβ42 levels in SDS brain homogenate fraction compared to vehicle” value ([2]; 10 mg/kg/day ip for 30 days, listed as p-FTAA)?
**A.** Its value is “significantly decreased”.

**Q.** What about the “Aβ38, Aβ40 or Aβ42 levels in DEA extraction of soluble amyloid beta from brain homogenates” value ([3]; 4 months old female hAPPSL mice) of the same compound?
**A.** Its value is “decreased”.

**Q.** And the “dose group with the strongest effect on DEA soluble Aβ” value [3]?
**A.** Its value is “strongest for 10 mg/kg/day group”.

**Q.** And the “MWM performance in terms of the swimming path” value [4]?
**A.** The value was “better performance than any other Tg group”.

Reference: patent US8710246B2, “Substituted thiophene pentamers” (Biochromix Newco AB, priority 2008, dated 2014)
